From patent US9144573B2, “Prostaglandin transporter inhibitors” (Albert Einstein College of Medicine of Yeshiva University, priority 2006, dated 2015)
Entries after “also recorded” stand apart in the source; their conditions may differ.

Tests used:
[1] = Degradation of exogenously-administered PGE2; type: in vivo, rats; conditions: 300 μL of 1 mM IV, PGE2 injected ten minutes later
Experimental: Either 300 μL vehicle (4% DMSO and 4% cremophor in water) or 300 μL of 1 mM T26A was injected into the jugular vein of anesthetized rats (300-325 g weight). Ten minutes later 100 μL of 1 ng/μL PGE2 was injected. One mL blood was withdrawn from the carotid artery at 1, 3, 5, and 10 min after PGE2 injection. PGE2 in blood samples was measured using PGE2 EIA kit from Caymanchem. […] This is also consistent with the FIG. 8 model. Inhibiting PGE2 transport into the cell reduces its intracellular degradation.

[2] = Endogenous PGE2 in circulating blood after jugular vein injection; type: in vivo, rats; conditions: 300 μL of 1 mM, blood 10 minutes later
Experimental: Either 300 μL vehicle (4% DMSO and 4% cremophor in water) or 300 μL of 1 mM T26A was injected into the jugular vein of anesthetized rats (300-325 g weight). One mL of blood was obtained from the carotid artery 10 minutes later, PGE2 in blood samples was measured using PGE2 EIA kit from Caymanchem. […] This finding is consistent with the model advanced in Example 2 (FIG. 8). Since PGT transports PGE2 into the cell, inhibiting PGT would be expected to inhibit removal of PGE2 from blood to be internalized and degraded.

In the case of `[N-]=[N+]=NCCOCCOCCNC(=O)c1ccc(Nc2nc(NCCOCCOCCNC(=O)c3ccccc3)nc(Nc3ccc(O)cc3)n2)cc1` [T26A], the “degradation of exogenously-administered PGE2” value [1] is reported as “inhibited PGE2 degradation; also recorded: reduces the degradation” and the “plasma PGE2 concentrations” value [2] is reported as “greater than two-fold increase; also recorded: increases endogenous PGE2”.
